The source made the active and inactive calls. The rule behind the calls is not given here.

Experiment [1] deals with MOLT-4. Briefly: Induction of apoptosis in human MOLT4 cells assessed as downregulation of PARP at 1 to 20 uM incubated for 24 hrs by Western blot analysis. The format is functional, cell-based.
Experiment [2] addresses Protein kinase C theta type (Homo sapiens) (UniProt Q04759). Briefly: Inhibition of recombinant full length human His-tagged PRKCQ expressed in baculovirus expression system assessed as enzyme residual activity at 0.4 uM using fluorophore-labeled serine/threonine-7 peptide as substrate incubated for 60 mins by Z'-LYTE assay relative to control.
The next experiment deals with CCRF-CEM. Kind of experiment: Induction of apoptosis in human CCRF-CEM cells assessed as upregulation of cleaved PARP at 1 to 5 uM incubated for 24 hrs by Western blot analysis. The format is functional, cell-based.
For experiment [3], the system named is Jurkat. Briefly: Induction of apoptosis in human Jurkat cells assessed as upregulation of cleaved PARP at 1 to 20 uM incubated for 24 hrs by Western blot analysis. The experiment is classed as functional, cell-based.
For experiment [4], the species on record is Homo sapiens. Briefly: Selectivity ratio of IC50 for recombinant human N-terminal His6-tagged JAK3 (781 to end residues) expressed in baculovirus infected Sf21 cells to IC50 for recombinant human N-terminal His6-tagged ITK (352 to 617 residues) expressed in baculovirus infected Sf21 insect cells.
Experiment [5] concerns MOLT-4. Kind of experiment: Growth inhibition of human MOLT4 cells incubated for 72 hrs by CellTiter-Glo luminescent cell viability assay. Particulars: MOLT-4, 72 h. The format is functional.
Experiment [6] addresses T1, Tyrosine-protein kinase JAK3 (Homo sapiens, UniProt P52333).
T1 sequence (P52333 whole entry): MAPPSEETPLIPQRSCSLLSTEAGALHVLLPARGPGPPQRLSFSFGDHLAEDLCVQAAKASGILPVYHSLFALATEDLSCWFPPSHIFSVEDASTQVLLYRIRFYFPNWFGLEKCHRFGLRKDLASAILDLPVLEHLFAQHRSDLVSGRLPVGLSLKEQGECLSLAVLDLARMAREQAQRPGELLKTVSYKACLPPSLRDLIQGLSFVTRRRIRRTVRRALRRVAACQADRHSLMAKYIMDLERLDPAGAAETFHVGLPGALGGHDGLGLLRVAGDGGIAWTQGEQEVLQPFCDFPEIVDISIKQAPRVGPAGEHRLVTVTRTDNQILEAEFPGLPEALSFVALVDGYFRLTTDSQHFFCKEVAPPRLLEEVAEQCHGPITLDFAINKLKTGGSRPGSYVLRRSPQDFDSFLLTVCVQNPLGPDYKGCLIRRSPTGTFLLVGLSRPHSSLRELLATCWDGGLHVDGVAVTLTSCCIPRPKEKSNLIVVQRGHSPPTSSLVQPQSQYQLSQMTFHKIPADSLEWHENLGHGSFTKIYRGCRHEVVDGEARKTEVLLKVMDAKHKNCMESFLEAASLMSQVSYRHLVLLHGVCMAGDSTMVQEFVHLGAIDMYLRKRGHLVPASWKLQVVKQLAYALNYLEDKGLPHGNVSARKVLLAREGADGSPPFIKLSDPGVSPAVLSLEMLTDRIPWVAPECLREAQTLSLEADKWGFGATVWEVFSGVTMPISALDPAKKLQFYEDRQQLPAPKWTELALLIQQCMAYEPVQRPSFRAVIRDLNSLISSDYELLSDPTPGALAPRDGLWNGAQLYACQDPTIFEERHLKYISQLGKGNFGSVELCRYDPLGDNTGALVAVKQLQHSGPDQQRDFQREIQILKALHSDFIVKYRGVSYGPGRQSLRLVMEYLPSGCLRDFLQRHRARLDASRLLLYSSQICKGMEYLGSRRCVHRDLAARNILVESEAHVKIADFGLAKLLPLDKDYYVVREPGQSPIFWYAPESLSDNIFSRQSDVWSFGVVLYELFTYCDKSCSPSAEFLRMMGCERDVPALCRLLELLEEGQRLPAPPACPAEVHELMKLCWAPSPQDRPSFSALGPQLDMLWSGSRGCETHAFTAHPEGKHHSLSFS
Kind of experiment: Inhibition of recombinant human N-terminal His6-tagged JAK3 (781 to end residues) expressed in baculovirus infected Sf21 cells using STK as substrate by HTRF assay.

Experiment [7] has as its system Jurkat. Kind of experiment: Induction of apoptosis in human Jurkat cells assessed as downregulation of caspase3 at 1 to 20 uM incubated for 24 hrs by Western blot analysis. The experiment is classed as functional, cell-based.
The target of experiment [8] is Epidermal growth factor receptor (Homo sapiens, UniProt P00533). Kind of experiment: Inhibition of human recombinant GST-tagged EGFR cytoplasmic domain (668 to 1210 residues) expressed in baculovirus expression system assessed as enzyme residual activity at 0.4 uM using fluorophore-labeled tyrosine-4 peptide as substrate by Z'-Lyte assay relative to control.
The target in experiment [9] is Casein kinase I isoform alpha (Homo sapiens) (UniProt P48729). Briefly: Inhibition of recombinant full length human GST-tagged CSNK1A1 expressed in baculovirus expression system assessed as enzyme residual activity at 0.4 uM using fluorophore-labeled serine/threonine-11 peptide as substrate incubated for 60 mins by Z'-LYTE assay relative to control.
For experiment [10], the target named is T2, Tyrosine-protein kinase ITK/TSK (Homo sapiens) (UniProt Q08881).
T2 sequence (whole entry): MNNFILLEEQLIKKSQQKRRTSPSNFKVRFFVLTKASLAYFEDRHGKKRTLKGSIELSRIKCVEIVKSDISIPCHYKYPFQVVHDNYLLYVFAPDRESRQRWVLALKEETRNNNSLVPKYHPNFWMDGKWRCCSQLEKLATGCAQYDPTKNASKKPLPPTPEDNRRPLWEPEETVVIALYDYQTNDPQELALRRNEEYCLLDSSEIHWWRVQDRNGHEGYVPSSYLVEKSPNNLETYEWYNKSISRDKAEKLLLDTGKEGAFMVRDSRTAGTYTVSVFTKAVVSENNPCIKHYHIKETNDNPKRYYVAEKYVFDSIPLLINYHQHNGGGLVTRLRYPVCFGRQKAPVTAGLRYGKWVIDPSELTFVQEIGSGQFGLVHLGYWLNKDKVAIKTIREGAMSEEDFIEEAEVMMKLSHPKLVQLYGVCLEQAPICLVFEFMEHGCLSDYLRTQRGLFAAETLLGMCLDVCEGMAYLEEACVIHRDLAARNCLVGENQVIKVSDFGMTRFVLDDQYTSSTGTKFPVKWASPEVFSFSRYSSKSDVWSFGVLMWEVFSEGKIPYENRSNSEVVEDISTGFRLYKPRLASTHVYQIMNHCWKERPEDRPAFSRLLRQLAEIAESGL
Briefly: Inhibition of ITK in human Jurkat cells assessed as reduction in anti-CD3/CD28-stimulated PLCgamma1 phosphorylation at 0.1 to 10000 nM preincubated for 2 hrs followed by anti-CD3/CD28 beads addition and measured after 30 min by Western blot analysis. The format is cell-based.

The subject of another experiment is HEK-293T. Briefly: Growth inhibition of HEK293T cells incubated for 72 hrs by CellTiter-Glo luminescent cell viability assay. The experiment is classed as functional. To be noted: Homo sapiens.
Experiment [11] is filed under the species Homo sapiens. Kind of experiment: Selectivity ratio of IC50 for recombinant human N-terminal GST-tagged EGFR kinase domain (696 to end residues) expressed in baculovirus infected Sf21 insect cells to IC50 for recombinant human N-terminal His6-tagged ITK (352 to 617 residues) expressed in baculovirus infected Sf21 insect cells.

Casein kinase I isoform alpha (Homo sapiens), sequence (P48729 2-337 limits assumed): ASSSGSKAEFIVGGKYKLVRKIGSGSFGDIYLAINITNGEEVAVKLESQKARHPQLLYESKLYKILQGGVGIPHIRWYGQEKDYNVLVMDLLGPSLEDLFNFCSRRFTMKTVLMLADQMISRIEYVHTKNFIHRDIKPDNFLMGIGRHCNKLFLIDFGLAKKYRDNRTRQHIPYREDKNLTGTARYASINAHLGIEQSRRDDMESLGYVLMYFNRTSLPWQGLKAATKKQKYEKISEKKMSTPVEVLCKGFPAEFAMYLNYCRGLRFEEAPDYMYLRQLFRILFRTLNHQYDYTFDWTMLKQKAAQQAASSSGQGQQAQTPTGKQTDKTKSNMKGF
Epidermal growth factor receptor, sequence (P00533 whole entry, the tested form may be a part, canonical isoform): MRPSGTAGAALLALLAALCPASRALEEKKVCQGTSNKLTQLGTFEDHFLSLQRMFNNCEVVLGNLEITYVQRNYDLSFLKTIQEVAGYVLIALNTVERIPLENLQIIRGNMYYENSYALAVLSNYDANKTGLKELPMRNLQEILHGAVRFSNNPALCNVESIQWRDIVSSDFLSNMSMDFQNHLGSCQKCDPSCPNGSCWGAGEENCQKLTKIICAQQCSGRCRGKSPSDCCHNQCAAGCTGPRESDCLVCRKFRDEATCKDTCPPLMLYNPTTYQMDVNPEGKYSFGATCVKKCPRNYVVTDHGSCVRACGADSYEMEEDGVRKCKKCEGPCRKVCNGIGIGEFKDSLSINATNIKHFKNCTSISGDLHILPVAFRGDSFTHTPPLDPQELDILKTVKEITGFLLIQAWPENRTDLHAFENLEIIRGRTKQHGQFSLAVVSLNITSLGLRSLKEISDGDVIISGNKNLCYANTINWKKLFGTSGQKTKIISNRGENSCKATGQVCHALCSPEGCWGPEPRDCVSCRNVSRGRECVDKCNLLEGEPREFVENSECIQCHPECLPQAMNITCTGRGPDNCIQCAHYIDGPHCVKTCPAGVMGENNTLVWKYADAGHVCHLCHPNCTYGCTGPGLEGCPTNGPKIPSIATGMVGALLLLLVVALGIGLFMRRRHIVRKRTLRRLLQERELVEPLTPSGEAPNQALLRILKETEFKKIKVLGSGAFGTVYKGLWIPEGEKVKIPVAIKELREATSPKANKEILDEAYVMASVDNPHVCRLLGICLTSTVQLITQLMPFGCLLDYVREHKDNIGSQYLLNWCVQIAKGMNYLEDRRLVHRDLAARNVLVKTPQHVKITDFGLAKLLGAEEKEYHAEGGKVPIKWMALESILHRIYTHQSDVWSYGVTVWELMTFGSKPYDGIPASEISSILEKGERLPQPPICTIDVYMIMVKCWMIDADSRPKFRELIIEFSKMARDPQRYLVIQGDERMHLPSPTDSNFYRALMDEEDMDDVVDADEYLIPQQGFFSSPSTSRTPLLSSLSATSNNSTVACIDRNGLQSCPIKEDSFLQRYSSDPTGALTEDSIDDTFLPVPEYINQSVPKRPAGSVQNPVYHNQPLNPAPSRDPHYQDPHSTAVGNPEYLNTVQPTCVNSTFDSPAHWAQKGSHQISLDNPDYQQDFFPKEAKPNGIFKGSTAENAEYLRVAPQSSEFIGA
Protein kinase C theta type (Homo sapiens), sequence (Q04759 whole entry, looked up): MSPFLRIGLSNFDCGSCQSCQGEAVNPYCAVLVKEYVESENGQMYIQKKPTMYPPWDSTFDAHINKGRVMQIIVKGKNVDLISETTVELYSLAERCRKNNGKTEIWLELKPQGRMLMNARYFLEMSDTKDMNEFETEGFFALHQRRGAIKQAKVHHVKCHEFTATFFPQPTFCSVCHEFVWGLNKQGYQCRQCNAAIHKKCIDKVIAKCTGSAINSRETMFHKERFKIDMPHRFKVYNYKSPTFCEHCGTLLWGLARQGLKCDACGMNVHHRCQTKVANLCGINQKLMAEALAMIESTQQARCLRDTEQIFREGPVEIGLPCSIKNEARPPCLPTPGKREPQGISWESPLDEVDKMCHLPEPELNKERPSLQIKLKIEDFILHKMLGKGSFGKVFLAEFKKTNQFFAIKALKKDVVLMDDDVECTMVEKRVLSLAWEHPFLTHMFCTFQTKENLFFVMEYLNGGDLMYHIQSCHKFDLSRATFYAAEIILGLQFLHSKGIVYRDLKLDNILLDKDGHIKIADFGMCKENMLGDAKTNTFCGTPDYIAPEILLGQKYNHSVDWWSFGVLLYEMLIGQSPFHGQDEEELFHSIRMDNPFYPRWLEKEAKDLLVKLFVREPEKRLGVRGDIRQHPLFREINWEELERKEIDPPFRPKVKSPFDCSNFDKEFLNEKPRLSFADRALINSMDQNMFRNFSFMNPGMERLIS

With `C=CC(=O)N1CCC(Oc2nc(Nc3ccc(N4CCOCC4)cc3)nc3[nH]cc(-c4cncc(NC)n4)c23)CC1`, the result in the experiment with MOLT-4 [1], in the experiment on CCRF-CEM, in the experiment on Jurkat [3] and with Jurkat [7] was Active. The figures for the Activity in [2], in [8] and in experiment [9] were 89%, 62% and 92.7%, respectively. The Ratio IC50 came out at 33 in the experiment listed under Homo sapiens [4] and 250 in the experiment listed under Homo sapiens [11]. Further, the concentration for 50% growth inhibition (GI50) worked out at 167 nM with MOLT-4 [5] and 544 nM with HEK-293T. Also, the 50% inhibitory concentration (IC50) in experiment [6] came out at 123 nM. The inhibition result in experiment [10] was “Active”.

(Values after ChEMBL document CHEMBL4346710, “Discovery of 7H-pyrrolo[2,3-d]pyrimidine derivatives as selective covalent irreversible inhibitors of interleukin-2-inducible T-cell kinase (Itk)” (Eur J Med Chem, 2019).)
